# Literature values as cited in patent US7531581B2, “Method and use of acidified modified polymers to bind biocides in paints” (I-Tech AB, priority 2005, dated 2009).
# Test system: barnacles
# Conditions: serotonin antagonists and dopamine agonists
row,Compound,effect on attachment of barnacles
1,CC(C)C[C@H]1C(=O)N2CCC[C@H]2[C@]2(O)O[C@](NC(=O)[C@@H]3C=C4c5cccc6[nH]c(Br)c(c56)C[C@H]4N(C)C3)(C(C)C)C(=O)N12 [(+)-Bromocriptine],inhibitory properties
2,CCCN1CCc2cccc3c2[C@H]1Cc1ccc(O)c(O)c1-3 [R (−)-NPA],inhibitory properties
3,O=C(c1ccc(F)cc1)C1CCN(CCn2c(=O)[nH]c3ccccc3c2=O)CC1 [Ketanserin],inhibitory properties
